Drawing on the METLIN SMRT retention time set (Domingo-Almenara et al. 2019), this text covers RP-LC retention time for 78 compounds.

This series is described as follows: gradient 5% acetonitrile 3 min, to 50% in 2 min, to 85% in 15 min, held 3 min, 100 µL/min. The note with it: column: Zorbax Extend-C18 2.1 x 50 mm; eluents: water / acetonitrile, 0.1% formic acid. Summed up:
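Over 3 months, pure standards in mixtures of ~100 molecules were run by HPLC coupled to a quadrupole time-of-flight mass spectrometer in positive and negative ionization mode. The column was a Zorbax Extend-C18 (2.1 × 50 mm, 1.8 μm) at 100 μL/min, eluted with water and acetonitrile each holding 0.1% formic acid, with 40 μL dead and 900 μL dwell volumes. Retention time was determined from adduct peaks chosen by software and checked manually.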
Regarding `COc1cc(C(=O)N2CCC[C@@H]2C(=O)NCc2csc(-c3ccccc3)n2)cc(OC)c1OC`, the RP-LC retention time is 769 s. Under `CCc1ccccc1NC(=O)CSc1cc(N2CCN(c3ccc(OC)cc3)CC2)ncn1` stands 1010 s; under `O=c1c2sccc2n(Cc2nc(-c3cccc(C(F)(F)F)c3)no2)c(=O)n1-c1ccc(F)cc1`, 1070 s. The result for `Cc1nsc2ncc(C(=O)N3CCOCC3)c(N3CCC(C(=O)Nc4ccccc4Br)CC3)c12` reads 813 s; that for `CCOc1ccc(S(=O)(=O)N2CCCC(C(=O)NCCO)C2)cc1` (stereo not drawn), 662 s; that for `COC(=O)c1c(NC(=O)C2COc3ccccc3O2)sc2c1CCN(C(=O)OC)C2` (stereo not drawn), 963 s. Consider `CCCCN1CCN(S(=O)(=O)c2ccc(-c3nnc(C4CCCC4)o3)o2)CC1`, for which the RP-LC retention time worked out at 678 s. In turn, `CCCCN(Cc1ccco1)C(=O)C1CCCN(c2ncnc3c2nc2n3CCCCC2)C1` (stereo not drawn) displayed an RP-LC retention time of 949 s.

`Cc1cc2nn(CC(=O)N3CCc4ccccc43)c(=O)n2c(Nc2ccc(F)cc2)n1` came in with an RP-LC retention time of 1030 s. Regarding `CCOC(=O)CSc1nnc(NC(=O)c2ccc(S(=O)(=O)N(C)C)cc2)s1`, the RP-LC retention time turned out to be 772 s. `Cc1nn(-c2cc(N(C)C)ncn2)c(C)c1CCC(=O)N1CCC(Cc2ccccc2)CC1` gave an RP-LC retention time of 969 s. Compound `CCn1nccc1-c1cccc(-c2noc(-c3cccnc3Cl)n2)c1` displayed an RP-LC retention time of 1040 s. Under `COc1ccc(N2C(=O)C3N=NN(Cc4nc(-c5ccccc5Cl)no4)C3C2=O)cc1OC` (stereo not drawn) stands 880 s; under `CCN(CC)C(=O)c1cnc2snc(C)c2c1N1CCC(C(=O)Nc2ccc(Br)c(C)c2)CC1`, 1080 s; under `O=C(NCC1CCN(C(=O)Nc2ccc(F)cc2)CC1)Oc1ccccc1`, 772 s. Consider `O=C(NC12CC3CC(CC(C3)C1)C2)C1CCN(S(=O)(=O)c2cccs2)CC1`, for which the RP-LC retention time was 1070 s. `CCC1Oc2ccc(S(=O)(=O)N3CCC(C(=O)Nc4ccc(F)cc4C)CC3)cc2NC1=O` (stereo not drawn): the RP-LC retention time turned out to be 922 s.

`CCn1c(SC)nnc1-c1nn(C)c2c1CN(C(=O)c1cccn1C)CC2` came in with an RP-LC retention time of 684 s. `COCc1nc2cccnc2n1C1CCN(C(=O)Nc2ccc3c(c2)OCCO3)CC1`: the RP-LC retention time was 654 s. In turn, `O=C(Nc1ccc2c(c1)OCCO2)N1CCCC(c2nnnn2-c2ccccc2)C1` (stereo not drawn) yielded an RP-LC retention time of 792 s.

In turn, `CCN(C(=O)Cn1c(C(C)C)nc2c(c1=O)CN(Cc1ccccc1)CC2)c1ccccc1` registered an RP-LC retention time of 757 s. The result for `COc1ccc(-c2noc(C3CCCN3C(=O)c3ccc(Cl)cc3)n2)cc1OC` (stereo not drawn) reads 959 s; that for `Cc1ccc(NC(=O)Cn2nc(C)cc2C(=O)Nc2cc(C)ccc2C)cc1`, 981 s. The result for `CCn1nccc1-c1cccc(-c2noc(-c3ccc(Br)o3)n2)c1` reads 1180 s.

With `Cc1ccc2oc(=O)c3cc(C(=O)N4CCN(c5ccccn5)CC4)sc3c2c1`, the RP-LC retention time is 664 s. Under `COc1cc(NC(=O)C2(C)CCCCC(=O)N2)cc(OC)c1` (stereo not drawn) stands 612 s; under `CC(=O)Nc1ccc(N(Cc2nnc3n2CCCCC3)C(=O)Nc2cccc(Cl)c2)cc1`, 691 s. Consider `COCCCNC(=O)N1CCCCCC1c1ccccc1Cl` (stereo not drawn), for which the RP-LC retention time came to 933 s.

In turn, `CSc1ccccc1C(=O)N1CCC(C(=O)NCc2nc(C)no2)CC1` showed an RP-LC retention time of 628 s. With `CCOc1ccc(-c2noc(Cc3nnc(-c4ccc(F)cc4)o3)n2)cc1`, the RP-LC retention time came out at 1050 s.

As to `Cc1ccc(NS(=O)(=O)c2cc(-c3[nH]ncc3C(=O)N3CCOCC3)oc2C)cc1F`, the RP-LC retention time is 695 s. Take `COc1ccc(CN2CCc3nc(N4CCCC4)ncc3C2)c(OC)c1`: the RP-LC retention time was determined as 619 s. As for `CC(=O)c1cccc(NC(=O)Cn2c(-c3ccccc3)nc(C)cc2=O)c1`, the RP-LC retention time amounted to 912 s. For `O=C(NC1CC1)c1ccc(OCC2CCN(C(=O)c3ccc(F)cc3Cl)CC2)cc1`, the RP-LC retention time came to 837 s. Take `CC1CS(=O)(=O)N(c2cccc(C(=O)N3CCN(c4ccccc4F)CC3)c2)C1=O` (stereo not drawn): the RP-LC retention time was 790 s. On to `NC(=O)c1c([N+](=O)[O-])cc(C(F)(F)F)cc1[N+](=O)[O-]`, for which the RP-LC retention time amounted to 702 s. For the compound `Cc1c(-c2noc(-c3ccccc3F)n2)nnn1Cc1cccc(F)c1`, the RP-LC retention time was 1050 s. Under `Cc1ccc(NC(=O)CC2COc3ccccc3NC2=O)cc1F` (stereo not drawn) stands 769 s; under `CCNC(=O)c1nc(C(=O)NCc2ccccc2F)cs1`, 765 s. The result for `Cn1cnc(S(=O)(=O)N2CCC(C(=O)Nc3ccc(F)c(Cl)c3)CC2)c1` reads 762 s; that for `O=C(c1ccc(-c2cccs2)nc1)N1CCN(c2ccc(F)cc2)CC1`, 950 s; that for `CCCCCNC(=O)C1CC(=O)N(CCc2c[nH]c3ccc(Cl)cc23)C1` (stereo not drawn), 740 s. Under `CCCCCC(=O)N1CCCCC1` stands 909 s. On to `Cc1ccc(N2CCC(NC(=O)c3cccc(F)c3)C2=O)cc1C` (stereo not drawn), for which the RP-LC retention time was determined as 891 s. Consider `CCOc1ccc(N2CC(c3nnc(NC(=O)CC4CCCCC4)o3)CC2=O)cc1` (stereo not drawn), for which the RP-LC retention time was 804 s. Turning to `CN(C)CCNC(=O)c1cn(C)nc1S(=O)(=O)N1CCN(c2ccc(Cl)cc2)CC1`, the RP-LC retention time stood at 672 s. As for `Clc1ccc2nc(-c3ccccc3)c(Nc3ccc4c(c3)OCCO4)n2c1`, the RP-LC retention time was determined as 746 s. For `CCOc1ccc(C(O)CN2CCN(c3ccccn3)CC2)cc1` (stereo not drawn), the RP-LC retention time was found to be 560 s.

In turn, `CCOc1ccccc1NC(=O)N1CCN(CCNC(=O)c2ccc3c(c2)OCO3)CC1` displayed an RP-LC retention time of 581 s. `Cc1ccc(CN2CCC(CNC(=O)CSc3nc4ccccc4n(C)c3=O)C2)cc1` (stereo not drawn) gave an RP-LC retention time of 634 s. `CC(C)c1noc(-c2cc(=O)n(CC(=O)Nc3ccc4c(c3)OCO4)c3ccccc23)n1`: the RP-LC retention time is 956 s. `O=C(Nc1nc(-c2ccc(-c3ccccc3)cc2)cs1)c1cccnc1` had an RP-LC retention time of 1030 s. With `CCn1cc(-c2nc(C(=O)Nc3ccc(F)c(C)c3)cs2)c2cccnc21`, the RP-LC retention time is 987 s.

Compound `O=C(NCCC1CCN(C(=O)Nc2cc(F)ccc2F)CC1)C1CC1` returned an RP-LC retention time of 715 s. Compound `CCOC(=O)c1cccc(Nc2c(-c3ccc4c(c3)OCO4)nc3cnccn23)c1` gave an RP-LC retention time of 834 s. `CCOC(=O)c1ccccc1NC(=O)CSc1cc(N2CCCC2)ncn1`: the RP-LC retention time is 914 s. `COC(=O)CNC(=O)Cc1c(C)nn(-c2nc(-c3ccc(C)cc3)cs2)c1C` came in with an RP-LC retention time of 963 s. For the compound `O=C1NCCCCCCN(C(=O)c2ccoc2)[C@H]2C[C@H](C(=O)N3CCc4ccccc4C3)C[C@@H]12`, the RP-LC retention time is 762 s. `CN(CC1(C)CCOCC1)S(=O)(=O)c1ccccc1C(F)(F)F` displayed an RP-LC retention time of 820 s. In the case of `C=CCN1CCc2cc(O)c(O)cc2C(c2ccccc2)C1` (stereo not drawn), the RP-LC retention time worked out at 652 s. The result for `COc1cc(C(=O)NC(C)COc2ccc(C(C)C)cc2)cc(OC)c1OC` (stereo not drawn) reads 965 s; that for `Cc1ccc(CNC(=O)C2CCCN(c3nnc4c(Cl)cccn34)C2)o1` (stereo not drawn), 704 s. As for `CCn1cnc2cc(-c3noc(C(C)NS(=O)(=O)c4ccc(C)cc4)n3)ccc21` (stereo not drawn), the RP-LC retention time was found to be 683 s. `Cc1ccc(NC(=O)Cn2c(=O)n(-c3ccccc3)c(=O)c3c2cc(C)n3C)cc1F` came in with an RP-LC retention time of 868 s. `CCOC(=O)c1c(C)oc2nc(C)nc(N3CCN(Cc4ccccc4)CC3)c12` came in with an RP-LC retention time of 583 s. As to `Cc1cc2nc(C(=O)Nc3ccc(F)c(Cl)c3)cc(C)n2n1`, the RP-LC retention time was determined as 1080 s. The result for `N#Cc1ccccc1CN1CCC2(CCC2N2CCOCC2)CC1` (stereo not drawn) reads 690 s; that for `CCc1cccc(-n2nnnc2N2CCN(C(=O)Nc3ccc(C)c(F)c3)CC2)c1`, 981 s; that for `CCOc1ccc(NC(=O)CCC2CCCN(c3cc(NC4CC4)ncn3)C2)cc1` (stereo not drawn), 692 s.

Regarding `Cn1cnc2ccc(-c3noc(CNC(=O)c4ccccc4)n3)cc21`, the RP-LC retention time was determined as 624 s. `O=C(Nc1nccs1)c1cc2cc([N+](=O)[O-])ccc2s1` displayed an RP-LC retention time of 821 s. The result for `CN1CCN(S(=O)(=O)c2ccc3nn(Cc4c(F)cccc4Cl)c(=O)n3c2)CC1` reads 642 s; that for `COCCCn1c(=O)c2ccccc2n(Cc2nc(-c3cccc(Cl)c3)no2)c1=O`, 1100 s; that for `O=C1CC(c2ccco2)Cc2[nH]c(=O)c(C(=O)Nc3ccccc3C(F)(F)F)cc21` (stereo not drawn), 746 s. `CCOc1ccc(-n2nnnc2CNS(=O)(=O)c2cccc(C(F)(F)F)c2)cc1` yielded an RP-LC retention time of 892 s. As for `CCN(CC)c1nc2cc(C(=O)OC)ccc2c(=O)n1CCc1ccccc1`, the RP-LC retention time came out at 1250 s. Consider `CCOC(=O)c1c(S(=O)(=O)N2CCC(C(=O)Nc3ccc(F)c(Cl)c3)CC2)c(C)n(C)c1C`, for which the RP-LC retention time is 935 s. `COc1ccc(NC(=O)Cn2nc3nc(N4CCCC(C)C4)ccn3c2=O)cc1F` (stereo not drawn): the RP-LC retention time was found to be 775 s.
